Assay results: ChEMBL document CHEMBL1909294, “Translating clinical findings into knowledge in drug safety evaluation--drug induced liver injury prediction system (DILIps)” (PLoS Comput Biol, 2011)

How the values were obtained:
Hepatotoxicity [1] = system: Hepatotoxicity;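 for HepSE Combined Scores: combined hepatic side effect score as listed in the training data of the Drug Induced Liver Injury Prediction System (DILIps)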;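 for HepSE cholelithiasis: hepatic side effect score for cholelithiasis, drawn from the DILIps training data for predicting drug-induced liver injury; call rule not given here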; for HepSE hepatic failure: call rule not given here;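 for HepSE hepatitis: Hepatitis-related hepatic side effect score taken from the training data of DILIps, a prediction system for drug-induced liver injury; call rule not given here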;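 for HepSE hepatomegaly: hepatic side effect score for hepatomegaly, taken from the training set of the DILIps drug-induced liver injury prediction system; call rule not given here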;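 for HepSE jaundice: Jaundice-related hepatic side-effect score drawn from the training data of the DILIps (drug-induced liver injury prediction system); call rule not given here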; for HepSE liver disease: call rule not given here
Hepatotoxicity [2] = system: Hepatotoxicity; remark: listed apart in the source;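 for HepSE Combined Scores: combined hepatic side effect score as listed in the training data of the Drug Induced Liver Injury Prediction System (DILIps)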;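 for HepSE cholelithiasis: hepatic side effect score for cholelithiasis, drawn from the DILIps training data for predicting drug-induced liver injury; call rule not given here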; for HepSE hepatic failure: call rule not given here;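 for HepSE hepatitis: Hepatitis-related hepatic side effect score taken from the training data of DILIps, a prediction system for drug-induced liver injury; call rule not given here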;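 for HepSE hepatomegaly: hepatic side effect score for hepatomegaly, taken from the training set of the DILIps drug-induced liver injury prediction system; call rule not given here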;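 for HepSE jaundice: Jaundice-related hepatic side-effect score drawn from the training data of the DILIps (drug-induced liver injury prediction system); call rule not given here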; for HepSE liver disease: call rule not given here
Hepatotoxicity [3] = system: Hepatotoxicity; remark: listed apart in the source;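 for HepSE Combined Scores: combined hepatic side effect score as listed in the training data of the Drug Induced Liver Injury Prediction System (DILIps)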;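 for HepSE cholelithiasis: hepatic side effect score for cholelithiasis, drawn from the DILIps training data for predicting drug-induced liver injury; call rule not given here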; for HepSE hepatic failure: call rule not given here;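 for HepSE hepatitis: Hepatitis-related hepatic side effect score taken from the training data of DILIps, a prediction system for drug-induced liver injury; call rule not given here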;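 for HepSE hepatomegaly: hepatic side effect score for hepatomegaly, taken from the training set of the DILIps drug-induced liver injury prediction system; call rule not given here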;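 for HepSE jaundice: Jaundice-related hepatic side-effect score drawn from the training data of the DILIps (drug-induced liver injury prediction system); call rule not given here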; for HepSE liver disease: call rule not given here
Hepatotoxicity [4] = system: Hepatotoxicity; remark: listed apart in the source;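 for HepSE Combined Scores: combined hepatic side effect score as listed in the training data of the Drug Induced Liver Injury Prediction System (DILIps)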;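 for HepSE cholelithiasis: hepatic side effect score for cholelithiasis, drawn from the DILIps training data for predicting drug-induced liver injury; call rule not given here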; for HepSE hepatic failure: call rule not given here;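 for HepSE hepatitis: Hepatitis-related hepatic side effect score taken from the training data of DILIps, a prediction system for drug-induced liver injury; call rule not given here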;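 for HepSE hepatomegaly: hepatic side effect score for hepatomegaly, taken from the training set of the DILIps drug-induced liver injury prediction system; call rule not given here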;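 for HepSE jaundice: Jaundice-related hepatic side-effect score drawn from the training data of the DILIps (drug-induced liver injury prediction system); call rule not given here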; for HepSE liver disease: call rule not given here
Hepatotoxicity [5] = system: Hepatotoxicity; remark: listed apart in the source; for HepSE hepatic failure: call rule not given here; for HepSE liver disease: call rule not given here
Hepatotoxicity [6] = system: Hepatotoxicity; remark: listed apart in the source; for HepSE hepatic failure: call rule not given here; for HepSE liver disease: call rule not given here
Hepatotoxicity [7] = system: Hepatotoxicity; remark: listed apart in the source
Hepatotoxicity [8] = system: Hepatotoxicity; remark: listed apart in the source
Hepatotoxicity [9] = system: Hepatotoxicity; remark: listed apart in the source
Hepatotoxicity [10] = system: Hepatotoxicity; remark: listed apart in the source
Hepatotoxicity [11] = system: Hepatotoxicity; remark: listed apart in the source
Hepatotoxicity [12] = system: Hepatotoxicity; remark: listed apart in the source
Hepatotoxicity [13] = system: Hepatotoxicity; remark: listed apart in the source
Hepatotoxicity [14] = system: Hepatotoxicity; remark: listed apart in the source

## Clc1ccccc1C(c1ccccc1)(c1ccccc1)n1ccnc1 [CLOTRIMAZOLE]
Hepatotoxicity [1]
  HepSE_Combined Scores: 1
Hepatotoxicity [2]
  HepSE_jaundice: 0
Hepatotoxicity [3]
  HepSE_cholelithiasis: 0
Hepatotoxicity [4]
  HepSE_liver disease: 0
Hepatotoxicity [5]
  HepSE_hepatitis: 0
Hepatotoxicity [6]
  HepSE_hepatic failure: 0
Hepatotoxicity [7]
  HepSE_liver fatty: 0
Hepatotoxicity [8]
  HepSE_hepatomegaly: 0
Hepatotoxicity [9]
  HepSE_bilirubinemia: 0
Hepatotoxicity [10]
  HepSE_liver function tests abnormal: 1
Hepatotoxicity [11]
  HepSE_cirrhosis: 0
Hepatotoxicity [12]
  HepSE_elevated liver function tests: 0
Hepatotoxicity [13]
  HepSE_cholecystitis: 0
Hepatotoxicity [14]
  HepSE_hepatic necrosis: 0

## O.O=P(O)(O)C(O)(Cn1ccnc1)P(=O)(O)O [ZOLEDRONIC ACID]
Hepatotoxicity [1]
  HepSE_Combined Scores: 1
Hepatotoxicity [2]
  HepSE_jaundice: 0
Hepatotoxicity [3]
  HepSE_cholelithiasis: 0
Hepatotoxicity [4]
  HepSE_liver disease: 0
Hepatotoxicity [5]
  HepSE_hepatitis: 0
Hepatotoxicity [6]
  HepSE_hepatic failure: 0
Hepatotoxicity [7]
  HepSE_liver fatty: 0
Hepatotoxicity [8]
  HepSE_hepatomegaly: 0
Hepatotoxicity [9]
  HepSE_bilirubinemia: 0
Hepatotoxicity [10]
  HepSE_liver function tests abnormal: 1
Hepatotoxicity [11]
  HepSE_cirrhosis: 0
Hepatotoxicity [12]
  HepSE_elevated liver function tests: 0
Hepatotoxicity [13]
  HepSE_cholecystitis: 0
Hepatotoxicity [14]
  HepSE_hepatic necrosis: 0

## Nc1nnc(-c2cccc(Cl)c2Cl)c(N)n1 [LAMOTRIGINE]
Hepatotoxicity [1]
  HepSE_Combined Scores: 3
Hepatotoxicity [2]
  HepSE_jaundice: 0
Hepatotoxicity [3]
  HepSE_cholelithiasis: 0
Hepatotoxicity [4]
  HepSE_liver disease: 0
Hepatotoxicity [5]
  HepSE_hepatitis: 1
Hepatotoxicity [6]
  HepSE_hepatic failure: 0
Hepatotoxicity [7]
  HepSE_liver fatty: 0
Hepatotoxicity [8]
  HepSE_hepatomegaly: 0
Hepatotoxicity [9]
  HepSE_bilirubinemia: 1
Hepatotoxicity [10]
  HepSE_liver function tests abnormal: 1
Hepatotoxicity [11]
  HepSE_cirrhosis: 0
Hepatotoxicity [12]
  HepSE_elevated liver function tests: 0
Hepatotoxicity [13]
  HepSE_cholecystitis: 0
Hepatotoxicity [14]
  HepSE_hepatic necrosis: 0

## C[C@H]1[C@H](NC(=O)/C(=N\OC(C)(C)C(=O)O)c2csc(N)n2)C(=O)N1S(=O)(=O)O [AZTREONAM]
Hepatotoxicity [1]
  HepSE_Combined Scores: 2
Hepatotoxicity [2]
  HepSE_jaundice: 1
Hepatotoxicity [3]
  HepSE_cholelithiasis: 0
Hepatotoxicity [4]
  HepSE_liver disease: 0
Hepatotoxicity [5]
  HepSE_hepatitis: 1
Hepatotoxicity [6]
  HepSE_hepatic failure: 0
Hepatotoxicity [7]
  HepSE_liver fatty: 0
Hepatotoxicity [8]
  HepSE_hepatomegaly: 0
Hepatotoxicity [9]
  HepSE_bilirubinemia: 0
Hepatotoxicity [10]
  HepSE_liver function tests abnormal: 0
Hepatotoxicity [11]
  HepSE_cirrhosis: 0
Hepatotoxicity [12]
  HepSE_elevated liver function tests: 0
Hepatotoxicity [13]
  HepSE_cholecystitis: 0
Hepatotoxicity [14]
  HepSE_hepatic necrosis: 0

## C=C(c1ccc(C(=O)O)cc1)c1cc2c(cc1C)C(C)(C)CCC2(C)C [BEXAROTENE]
Hepatotoxicity [1]
  HepSE_Combined Scores: 2
Hepatotoxicity [2]
  HepSE_jaundice: 0
Hepatotoxicity [3]
  HepSE_cholelithiasis: 0
Hepatotoxicity [4]
  HepSE_liver disease: 0
Hepatotoxicity [5]
  HepSE_hepatitis: 0
Hepatotoxicity [6]
  HepSE_hepatic failure: 1
Hepatotoxicity [7]
  HepSE_liver fatty: 0
Hepatotoxicity [8]
  HepSE_hepatomegaly: 0
Hepatotoxicity [9]
  HepSE_bilirubinemia: 1
Hepatotoxicity [10]
  HepSE_liver function tests abnormal: 0
Hepatotoxicity [11]
  HepSE_cirrhosis: 0
Hepatotoxicity [12]
  HepSE_elevated liver function tests: 0
Hepatotoxicity [13]
  HepSE_cholecystitis: 0
Hepatotoxicity [14]
  HepSE_hepatic necrosis: 0

## Nc1nc2c(ncn2COCCO)c(=O)[nH]1 [ACYCLOVIR]
Hepatotoxicity [1]
  HepSE_Combined Scores: 4
Hepatotoxicity [2]
  HepSE_jaundice: 1
Hepatotoxicity [3]
  HepSE_cholelithiasis: 0
Hepatotoxicity [4]
  HepSE_liver disease: 0
Hepatotoxicity [5]
  HepSE_hepatitis: 1
Hepatotoxicity [6]
  HepSE_hepatic failure: 0
Hepatotoxicity [7]
  HepSE_liver fatty: 0
Hepatotoxicity [8]
  HepSE_hepatomegaly: 0
Hepatotoxicity [9]
  HepSE_bilirubinemia: 1
Hepatotoxicity [10]
  HepSE_liver function tests abnormal: 0
Hepatotoxicity [11]
  HepSE_cirrhosis: 0
Hepatotoxicity [12]
  HepSE_elevated liver function tests: 1
Hepatotoxicity [13]
  HepSE_cholecystitis: 0
Hepatotoxicity [14]
  HepSE_hepatic necrosis: 0

## Nc1cc(-c2ccncc2)c[nH]c1=O [INAMRINONE]
Hepatotoxicity [1]
  HepSE_Combined Scores: 1
Hepatotoxicity [2]
  HepSE_jaundice: 1
Hepatotoxicity [3]
  HepSE_cholelithiasis: 0
Hepatotoxicity [4]
  HepSE_liver disease: 0
Hepatotoxicity [5]
  HepSE_hepatitis: 0
Hepatotoxicity [6]
  HepSE_hepatic failure: 0
Hepatotoxicity [7]
  HepSE_liver fatty: 0
Hepatotoxicity [8]
  HepSE_hepatomegaly: 0
Hepatotoxicity [9]
  HepSE_bilirubinemia: 0
Hepatotoxicity [10]
  HepSE_liver function tests abnormal: 0
Hepatotoxicity [11]
  HepSE_cirrhosis: 0
Hepatotoxicity [12]
  HepSE_elevated liver function tests: 0
Hepatotoxicity [13]
  HepSE_cholecystitis: 0
Hepatotoxicity [14]
  HepSE_hepatic necrosis: 0

## O=[As][As+](=O)[O-] (configuration not stated) [ARSENIC TRIOXIDE]
Hepatotoxicity [1]
  HepSE_Combined Scores: 0
Hepatotoxicity [2]
  HepSE_jaundice: 0
Hepatotoxicity [3]
  HepSE_cholelithiasis: 0
Hepatotoxicity [4]
  HepSE_liver disease: 0
Hepatotoxicity [5]
  HepSE_hepatitis: 0
Hepatotoxicity [6]
  HepSE_hepatic failure: 0
Hepatotoxicity [7]
  HepSE_liver fatty: 0
Hepatotoxicity [8]
  HepSE_hepatomegaly: 0
Hepatotoxicity [9]
  HepSE_bilirubinemia: 0
Hepatotoxicity [10]
  HepSE_liver function tests abnormal: 0
Hepatotoxicity [11]
  HepSE_cirrhosis: 0
Hepatotoxicity [12]
  HepSE_elevated liver function tests: 0
Hepatotoxicity [13]
  HepSE_cholecystitis: 0
Hepatotoxicity [14]
  HepSE_hepatic necrosis: 0

## O=C1CCC(N2C(=O)c3ccccc3C2=O)C(=O)N1 (configuration not stated) [THALIDOMIDE]
Hepatotoxicity [1]
  HepSE_Combined Scores: 4
Hepatotoxicity [2]
  HepSE_jaundice: 1
Hepatotoxicity [3]
  HepSE_cholelithiasis: 0
Hepatotoxicity [4]
  HepSE_liver disease: 0
Hepatotoxicity [5]
  HepSE_hepatitis: 1
Hepatotoxicity [6]
  HepSE_hepatic failure: 0
Hepatotoxicity [7]
  HepSE_liver fatty: 0
Hepatotoxicity [8]
  HepSE_hepatomegaly: 1
Hepatotoxicity [9]
  HepSE_bilirubinemia: 1
Hepatotoxicity [10]
  HepSE_liver function tests abnormal: 0
Hepatotoxicity [11]
  HepSE_cirrhosis: 0
Hepatotoxicity [12]
  HepSE_elevated liver function tests: 0
Hepatotoxicity [13]
  HepSE_cholecystitis: 0
Hepatotoxicity [14]
  HepSE_hepatic necrosis: 0

## NCCCCCC(=O)O [AMINOCAPROIC ACID]
Hepatotoxicity [1]
  HepSE_Combined Scores: 0
Hepatotoxicity [2]
  HepSE_jaundice: 0
Hepatotoxicity [3]
  HepSE_cholelithiasis: 0
Hepatotoxicity [4]
  HepSE_liver disease: 0
Hepatotoxicity [5]
  HepSE_hepatitis: 0
Hepatotoxicity [6]
  HepSE_hepatic failure: 0
Hepatotoxicity [7]
  HepSE_liver fatty: 0
Hepatotoxicity [8]
  HepSE_hepatomegaly: 0
Hepatotoxicity [9]
  HepSE_bilirubinemia: 0
Hepatotoxicity [10]
  HepSE_liver function tests abnormal: 0
Hepatotoxicity [11]
  HepSE_cirrhosis: 0
Hepatotoxicity [12]
  HepSE_elevated liver function tests: 0
Hepatotoxicity [13]
  HepSE_cholecystitis: 0
Hepatotoxicity [14]
  HepSE_hepatic necrosis: 0

## CC(C)(C)NCC(O)c1cc(O)cc(O)c1 (configuration not stated) [TERBUTALINE]
Hepatotoxicity [1]
  HepSE_Combined Scores: 0
Hepatotoxicity [2]
  HepSE_jaundice: 0
Hepatotoxicity [3]
  HepSE_cholelithiasis: 0
Hepatotoxicity [4]
  HepSE_liver disease: 0
Hepatotoxicity [5]
  HepSE_hepatitis: 0
Hepatotoxicity [6]
  HepSE_hepatic failure: 0
Hepatotoxicity [7]
  HepSE_liver fatty: 0
Hepatotoxicity [8]
  HepSE_hepatomegaly: 0
Hepatotoxicity [9]
  HepSE_bilirubinemia: 0
Hepatotoxicity [10]
  HepSE_liver function tests abnormal: 0
Hepatotoxicity [11]
  HepSE_cirrhosis: 0
Hepatotoxicity [12]
  HepSE_elevated liver function tests: 0
Hepatotoxicity [13]
  HepSE_cholecystitis: 0
Hepatotoxicity [14]
  HepSE_hepatic necrosis: 0

## C[C@]12C=CC(=O)C=C1CC[C@@H]1[C@@H]2[C@@H](O)C[C@@]2(C)[C@H]1CC[C@]2(O)C(=O)CO [PREDNISOLONE]
Hepatotoxicity [1]
  HepSE_Combined Scores: 1
Hepatotoxicity [2]
  HepSE_jaundice: 0
Hepatotoxicity [3]
  HepSE_cholelithiasis: 0
Hepatotoxicity [4]
  HepSE_liver disease: 0
Hepatotoxicity [5]
  HepSE_hepatitis: 0
Hepatotoxicity [6]
  HepSE_hepatic failure: 0
Hepatotoxicity [7]
  HepSE_liver fatty: 0
Hepatotoxicity [8]
  HepSE_hepatomegaly: 1
Hepatotoxicity [9]
  HepSE_bilirubinemia: 0
Hepatotoxicity [10]
  HepSE_liver function tests abnormal: 0
Hepatotoxicity [11]
  HepSE_cirrhosis: 0
Hepatotoxicity [12]
  HepSE_elevated liver function tests: 0
Hepatotoxicity [13]
  HepSE_cholecystitis: 0
Hepatotoxicity [14]
  HepSE_hepatic necrosis: 0

## OC(CNCC(O)C1CCc2cc(F)ccc2O1)C1CCc2cc(F)ccc2O1 (configuration not stated) [NEBIVOLOL]
Hepatotoxicity [1]
  HepSE_Combined Scores: 0
Hepatotoxicity [2]
  HepSE_jaundice: 0
Hepatotoxicity [3]
  HepSE_cholelithiasis: 0
Hepatotoxicity [4]
  HepSE_liver disease: 0
Hepatotoxicity [5]
  HepSE_hepatitis: 0
Hepatotoxicity [6]
  HepSE_hepatic failure: 0
Hepatotoxicity [7]
  HepSE_liver fatty: 0
Hepatotoxicity [8]
  HepSE_hepatomegaly: 0
Hepatotoxicity [9]
  HepSE_bilirubinemia: 0
Hepatotoxicity [10]
  HepSE_liver function tests abnormal: 0
Hepatotoxicity [11]
  HepSE_cirrhosis: 0
Hepatotoxicity [12]
  HepSE_elevated liver function tests: 0
Hepatotoxicity [13]
  HepSE_cholecystitis: 0
Hepatotoxicity [14]
  HepSE_hepatic necrosis: 0
